In ChEMBL document CHEMBL3739372 (Bioorg Med Chem, 2015):
pEC50, pIC50: −log10 of the molar value.

Experiments:
[1] = Inhibition of Influenza B virus wild type neuraminidase
Influenza A virus = test: Antiviral activity against Influenza A virus infected in MDCK cells after 72 hrs by yield reduction assay; format: functional, organism-based
[2] = Cytotoxicity against MDCK cells after 72 hrs by XTT assay; format: cell-based, Canis lupus familiaris; settings: dog

SMILES	pIC50 [1]	pEC50 (Influenza A virus)	CC50 at 72 h [2]
CCOC(=O)c1cn(CC)c2ccc(-n3cc(C4=CCCCC4)nn3)cc2c1=O	4.66	6.70	566 µM
CCOC(=O)C1=C[C@@H](OC(CC)CC)[C@H](NC(C)=O)[C@@H](N)C1 [OSELTAMIVIR]	4.80	7.52	321 µM
